In ChEMBL document CHEMBL1156829 (Proc Natl Acad Sci U S A, 2008):

Experiments:
[1] = NOVARTIS: Cytotoxicity against human hepatocellular carcinoma cell line (Huh7); format: toxicity, cell-based, Huh-7; details: Huh7 cells (hepatocellular carcinoma cell line)
[2] = system: Plasmodium falciparum; assay: NOVARTIS: Inhibition of Plasmodium falciparum 3D7 (drug-susceptible) proliferation in erythrocyte-based infection assay; format: functional, organism-based; details: Plasmodium falciparum, 3D7
[3] = system: Plasmodium falciparum; assay: NOVARTIS: Inhibition of Plasmodium falciparum W2 (drug-resistant) proliferation in erythrocyte-based infection assay; format: functional, organism-based; details: Plasmodium falciparum, W2; read-out: EC50

Row | SMILES | CC50 [1] | EC50 [2] | EC50 [3]
1 | NNc1ncnc2[nH]cnc12 | > 10000 nM | 303 nM | 666 nM
2 | CC(C)(C)NCC(O)COc1cccc2oc3ccccc3c12 (stereo not given) | > 10000 nM | > 1250 nM | 653 nM
3 | Brc1ccc(C=Nc2ccc(-c3nc4cc(-c5ccc6[nH]c(-c7ccc(N=Cc8ccc(Br)cc8)cc7)nc6c5)ccc4[nH]3)cc2)cc1 | > 10000 nM | 587 nM | 647 nM
4 | Cc1ccn2c(NC(C)(C)CC(C)(C)C)c(-c3ccccc3OC(=O)C(c3ccccc3)c3ccccc3)nc2c1 | > 1120 nM | 746 nM | 71.8 nM
5 | CC(=O)Nc1c(C)cc(Cl)cc1Cl | > 10000 nM | 1450 nM | 661 nM
6 | CC(CC(=O)NCCCCNc1ccnc2cc(Cl)ccc12)CC(C)(C)C (stereo not given) | 4590 nM | 443 nM | 296 nM
7 | CCOC(=O)CN1C(=O)c2ccccc2Sc2ncccc21 | > 10000 nM | > 1120 nM | > 644 nM
8 | Clc1ccc2c(NC3CCCCCCC3)ccnc2c1 | > 13700 nM | 1040 nM | 881 nM
9 | CC(=O)N1c2ccccc2CC1C(=O)NCc1cccc(Cl)c1 (stereo not given) | > 100000 nM | > 12500 nM | > 6460 nM
10 | CC(=O)c1ccc(N2C(C)c3nc4ccccc4c(=O)n3C2c2cccc(O)c2)cc1 (stereo not given) | > 10000 nM | 1050 nM | 646 nM
11 | CCN(CC)CCN(Cc1cc2cc(OC)ccc2[nH]c1=O)C(=S)Nc1ccc(F)cc1 | 51400 nM | 2080 nM | 3320 nM
12 | O=C(Nc1ccc2oc(-c3ccc(I)cc3)nc2c1)c1ccc([N+](=O)[O-])o1 | 33800 nM | 3160 nM | 2200 nM
13 | CN1CCN(c2c3c(c(C#N)c4nc5ccccc5n24)CCC3)CC1 | > 100000 nM | 1180 nM | > 6490 nM
14 | NC(=O)c1ccc2c(c1)N=C(c1cccnc1)N(C1CC1)C2 | > 10000 nM | 1300 nM | 648 nM
15 | COc1ccc(-n2cc(-c3ccccc3)[n+]3c2SCC3)cc1 | > 10000 nM | 527 nM | 647 nM
16 | COC(=O)C1=C(C)NC2=C(C(=O)CC(C)(C)C2)C1c1ccccc1[N+](=O)[O-] (stereo not given) | > 91500 nM | > 12500 nM | 5970 nM
17 | COCCNC(=O)c1ccc(NCCc2ccc(Cl)cc2)c(S(=O)(=O)Nc2cccc(C(F)(F)F)c2)c1 | > 100000 nM | 7340 nM | 6520 nM
18 | CC1=C(CCN(CCCN(C)C)CCCN(C)C)C(C)(C)CCC1 | 7660 nM | 193 nM | 498 nM
19 | COc1ccccc1-n1c(C=Cc2cc(Br)ccc2O)nc2ccccc2c1=O | 19400 nM | 2070 nM | 1240 nM
20 | O=C(C1Cc2ccccc2CN1S(=O)(=O)c1ccc(F)cc1)N1CCOCC1 (stereo not given) | > 10000 nM | > 1340 nM | 641 nM
21 | COc1ccc(-c2noc(-c3cccc(I)c3)n2)cc1OC | > 13600 nM | > 1740 nM | > 873 nM
22 | CC1CCCCN1CCCNCc1ccc(OCc2ccccc2)cc1 (stereo not given) | 4650 nM | 385 nM | 298 nM
23 | CSc1oc(C(C)(C)C)nc1[P+](c1ccccc1)(c1ccccc1)c1ccccc1 | 6820 nM | 296 nM | 438 nM
24 | C=CCSc1nc(Sc2ccc(Cl)cc2)c2sc3ccccc3c2n1 | > 10000 nM | > 1250 nM | > 642 nM
25 | Cc1cccc(C)c1NC(=O)N1CCN(C(=O)c2nc(-c3ccccc3)nc(C)c2C(=O)OC(C)C)CC1C (stereo not given) | > 10000 nM | 792 nM | 642 nM
26 | COc1ccc([N+](=O)[O-])cc1N(CC1CO1)S(=O)(=O)c1ccc(C)cc1 (stereo not given) | > 100000 nM | > 12500 nM | 6640 nM
27 | CCOC(=O)c1cnc(SCC(=O)Nc2cc(C)ccc2C)nc1N | > 10000 nM | > 1250 nM | > 660 nM
28 | CCCCCCN(C(=O)c1ccccc1)C(CC)c1nc2ccccc2c(=O)n1-c1ccccc1OC (stereo not given) | > 7980 nM | 1050 nM | 526 nM

Row | SMILES | CC50 [1] | EC50 [2] | EC50 [3]
29 | COc1ccccc1NC(=O)CCCC(=O)OC(C)C(=O)c1ccccc1 (stereo not given) | > 10000 nM | > 1250 nM | > 659 nM
30 | FC(F)(F)c1cccc(CNC2CCN(CCc3ccccc3)CC2)c1 | 7390 nM | 174 nM | 487 nM
31 | Cc1ccc(Sc2cc(C(=O)NCc3ccco3)c3ccccc3n2)cc1 | > 100000 nM | > 6980 nM | 6580 nM
32 | C(=C\c1ccccc1)/CNC1CCN(Cc2ccccc2)CC1 | > 10000 nM | 995 nM | 657 nM
33 | Cc1cccc(Nc2nc(NCc3ccco3)c3ccccc3n2)c1 | 4930 nM | 266 nM | 326 nM
34 | COc1ccc(NC(=O)NCc2cccn2Cc2ccc(F)cc2)cc1OC | > 10000 nM | 1070 nM | 661 nM
35 | CCOc1ccc(NC2=C(N3CCOCC3)C(=O)c3ccccc3C2=O)cc1 | > 100000 nM | 3660 nM | 6570 nM
36 | Cc1cccc(C)c1NC(=O)N1CCN(C2CCCCC2)CC1 | > 100000 nM | > 12500 nM | > 6560 nM
37 | CC(=O)N1CCc2cc(NC3CCN(Cc4ccccc4)CC3)ccc21 | > 10000 nM | > 1250 nM | > 656 nM
38 | CCOC(=O)c1ccc(N2C(=O)c3[nH]nc(C)c3C2c2ccccc2OC)cc1 (stereo not given) | > 10000 nM | 610 nM | > 655 nM
39 | CC1N=C2c3ccccc3N=C(SCc3ccc(F)cc3)N2C1=O (stereo not given) | > 100000 nM | > 12500 nM | > 6530 nM
40 | CCCCCCCCN[C@@H](C)[C@@H](O)c1ccc(SC(C)C)cc1 | > 6250 nM | > 1250 nM | 413 nM
41 | CCCN(CCC)C(=O)c1c[nH]c2ccc(S(=O)(=O)N(C)c3ccc(F)cc3)cc2c1=O | > 100000 nM | > 12500 nM | 6650 nM
42 | COc1ccc(N2C(=O)c3cccnc3C2=O)cc1 | > 10000 nM | 1980 nM | 665 nM
43 | CC1CCN(S(=O)(=O)c2ccc(C(=O)Nc3sc4c(c3C(N)=O)CCN(C)C4)cc2)CC1 | > 10000 nM | > 1250 nM | > 665 nM
44 | Cc1cccc(NC(=O)N2CCN(C(=O)c3nc(-c4ccccc4)nc(C)c3C(=O)OC(C)C)CC2C)c1C (stereo not given) | > 5760 nM | 509 nM | 384 nM
45 | COc1ccc(C(=O)C[n+]2ccc(N)c(C)c2C)cc1 | > 10000 nM | 438 nM | > 665 nM
46 | CCOc1cccc2c1N(C(=O)c1ccc(C)cc1)C(C)(C)C1=C2C2(SC(C(=O)OC)=C(C(=O)OC)S2)C(C(=O)OC)=C(C(=O)OC)S1 | > 10000 nM | 1080 nM | 663 nM
47 | CCOCc1nnc(NC(=O)COc2ccc(Cl)cc2Cl)s1 | > 100000 nM | > 12500 nM | 6420 nM
48 | CCCN1CCC(N2C[C@@H](NC3CCCCCC3)C[C@H]2C(=O)NCCc2ccc3c(c2)OCO3)CC1 | > 13000 nM | 1110 nM | > 833 nM
49 | CCC(=O)N(C1=C(NC)C(=O)c2ccccc2C1=O)C(C)C | 563 nM | 8.99 nM | 36.5 nM
50 | CC[n+]1c(C=Cc2ccc(Cl)cc2)ccc2ccccc21 | 19500 nM | 3750 nM | 1260 nM
51 | CC1=NOC(=O)C1=Cc1ccc(-c2ccc([N+](=O)[O-])cc2)o1 | > 100000 nM | > 12500 nM | 6500 nM
52 | CCCC1=NN(c2nc3ccccc3s2)C(=O)C1 | > 10000 nM | > 1250 nM | > 644 nM
53 | O=C1NN(c2ccc(Br)cc2)C(=O)/C1=C\c1c(O)ccc2ccccc12 | > 10000 nM | 856 nM | 653 nM
54 | Cc1cnc(CNc2cc(-c3ccccn3)nc(-c3ccccn3)n2)nc1 | > 10000 nM | 465 nM | 646 nM
55 | CN(C)CC(C)(C)CNCc1cc(-c2ccnc3cc(Cl)ccc23)ccc1O | > 10000 nM | 880 nM | 660 nM
